The values that follow come from US10323019B2, “Pyrazolylaminobenzimidazole derivatives as JAK inhibitors” (Eli Lilly and Company, priority 2016, dated 2019).

Read-outs that look alike come from different tables or passages of the source.

One assay concerns the target JAK3 (Homo sapiens (Human), UniProt P52333). Nature of the assay: JAK LanthaScreen Kinase Assay (TR-FRET), JAK3 in vitro enzyme assay. The assay is classed as biochemical. To be noted: 20.0 μM ATP. As to the method:
(§1) The JAK LanthaScreen™ Kinase Assay (Invitrogen) is used to determine the ability of test compounds to inhibit JAK1, JAK2, and JAK3 kinase activity. These are TR-FRET assay formats that use long-lifetime terbium labeled antibody as the donor species and GFP-STAT1 as the acceptor species. Use the TR-FRET ratio to monitor JAK kinase activity where an increase in phosphorylation of the GFP-STAT1 results in an increase in the TR-FRET ratio. Perform the kinase reaction using a 12.5 μl reaction volume in shallow black 384-well Proxiplate®. Add reagents to obtain final reaction conditions of […], 1.76 mM Triton X-100, ATP (20.0 μM for JAK1 and JAK3 or 5 μM for JAK2) enzyme assays, 10.0 mM MgCl2, 1 mM EGTA and 0.01% Brij-35, […] GFP-STAT1, 14 nM JAK1 enzyme for JAK1, 1.0 nM for JAK2 or 2.5 nM for JAK3 enzyme assays, and 4% DMSO and serial dilutions of test compound (diluted 1:3 from 20,000 to 1 nM). Following ATP/GFP-STAT1 addition, centrifuge the assay plates for 1 minute at 1000 revolutions per minute (RPM). Allow the plates to incubate at RT for 60 minutes and then add 12.5 μl of a stopping buffer containing 20 mM EDTA, 2 nM Terbium-anti-phosphorylated Signal Transducers and Activators of Transcription [phosphorylation Tyrosine 701 amino acid] […] Use ACTIVITYBASE® 4.0 to fit the percent inhibition and ten-point compound concentration data to a four-parameter logistic equation.
Background: Time-resolved FRET reads energy transfer from a long-lived donor to a nearby acceptor.

Assay [1] deals with T1, JAK2 (Homo sapiens (Human), UniProt O60674). The assay is described as follows: Human whole blood assay: pSTAT5 (JAK2) in monocytes, GM-CSF stimulated. The format is cell-based. The conditions noted are these: pSTAT5 in CD4Low CD33Hi monocytes. From the text: (§2) Human Whole Blood Assays: Determination of pSTAT3 (JAK1) and pSTAT5 (JAK2) in Lymphocytes and Monocytes
(§3) Human whole blood (HWB) assays were developed and validated to determine the JAK1 and JAK2 selectivity of test compounds.
(§4) Dilute the test compounds, 10 points, (1:3) in DMSO 100% and a step down in PBS+0.1% BSA. Use Tofacitinib as a reference compound in each plate, as well as a maximum signal (stimulated wells) and a minimum signal (no stimulated wells) in order to normalize data. Obtain a pool of HWB from 4 different healthy donors. Plate the blood in a 96 well plate using a Tecan Evo 96w and incubate with test compounds for 1 h at RT. After this time of incubation, stimulate HWB with both IL6 (206-IL, R&D System) and GM-CSF (PHC2015, Life Technologies) for 15 more minutes. Add a viability dye (65-0865, eBiosicience) (1:1000) using a Tecan Evo 96w (5×mix).
(§5) The final concentrations in the assay are the following: 100 (μM for compounds, 50 μM for Tofacitinib, 0.1 μg/mL IL6, 0.038 μg/mL GM-CSF and 1% DMSO. Lyse and fix HWB using a Lyse/fix buffer (558049, Becton Dickinson) by adding 900 μL of lysis buffer using Tecan Evo 96w (mix 10× high speed). Incubate HWB in bath at 37° C. for 10 minutes. Centrifuge HWB at 500 G, 8 min and discard supernatant. Add cold MeOH using a Tecan Exo 96w in order to permeabilize cells. Incubate blood cells on ice during 30 min. After this, wash cells 2× using Staining buffer (554656, Becton Dickinson), spin at 3000 rpm, 2 min. discard supernatant, and add the following antibodies: Anti-Human CD4 PE, 1:100 (12-0048, eBioscience), Anti-Human CD33 eFluor® 450, 1:50 (48-0337, eBioscience), Phospho-STAT5 (Tyr694) (C71E5) Rabbit mAb, 1:100 (Alexa Fluor® 488 Conjugate) (3939, Cell Signaling) and Phospho-STAT3 (Tyr705) (D3A7) XP™ Rabbit mAb 1:200, (Alexa Fluor® 647 Conjugate) (4324, Cell Signaling). Incubate the antibodies for 1 h in dark at RT, then wash cells 2× and read on Cytometer Macsquant (Miltenyi Biotec). Gate the data on CD4+ (lymphocytes) and CD4Low CD33Hi (monocytes), to measure the fluorescence intensity from cells expressing pSTAT3 and pSTAT5, respectively. Analyze the data using FlowJo v 10 and then normalize the median of fluorescence versus maximum and minimum signal to determine the IC50s. Use Graph Pad Prism 5™ to represent the dose response curves.

The target of assay [2] is T1, JAK2. The assay is described as follows: JAK LanthaScreen Kinase Assay (TR-FRET), JAK2 in vitro enzyme assay. The conditions noted are these: 5 μM ATP. The format is biochemical. How it is done:
as §1

For assay [3], the target named is T2, JAK1 (Homo sapiens (Human), UniProt P23458). Nature of the assay: JAK LanthaScreen Kinase Assay (TR-FRET), JAK1 in vitro enzyme assay. The assay is classed as biochemical. The conditions noted are these: 20.0 μM ATP. As to the method: as §1
The target of assay [4] is T2, JAK1. The assay is described as follows: Human whole blood assay: pSTAT3 (JAK1) in lymphocytes, IL6 stimulated. The assay is classed as cell-based. To be noted: IL6, pSTAT3 in CD4+ lymphocytes.
Text: as §2, §3, §4, §5

In assay [5] the target is JAK1 (Rattus norvegicus, UniProt G3V9W2). Nature of the assay: Rat PK/PD assay: rat whole blood ex vivo JAK1 activity (pSTAT3). The format is in vivo. To be noted: 30 mpk oral. How it is done: (§6) Male Wistar rats, 265-285 grams (Charles River) were used for oral gavage dosing. Dose the animals (Oral gavage) at 1.82 mL/kg (0.5 mL per 275 grams). Formulate the compounds in 1% HEC vehicle containing 0.25% Tween 80 and 0.05% antifoam with 1.1 molar equivalent of methanesulfonic acid to form an in situ salt. Formulate compounds once per week, and store at 4° C. At various time points, obtain rat whole blood via tail vain bleeding in Multivette 600 μl EDTA blood collection tubes (cat#151671100PK100, Sarstedt Inc) and use for ex vivo JAK1 and JAK2 assay. Aliquot 100 ul of blood from each rat into a 96-well round bottom plate. Stimulate whole blood by recombinant IL-6 ([…], and recombinant mouse GM-CSF (cat#415-ML, lot#, R&D) for 12 min at rt. After cytokine stimulation, add whole blood into Lyse/fix (cat#558049, lot#, BD) in minitube rack; mix well 5×. Incubate 10 min at rt. Spin minitube rack at 600 g for 4 min. Aspirate with 12-channel manifold. Transfer contents of minitube rack to 96 well round-bottom plates. Spin down the cells at 3000 rpm for 1 min and discard the supernatant. Mix the cells in the well with 100 ul ice-cold MeOH and incubated on ice for 30 min. Add 150 ul PBS+2% FCS into each well and spin down at 3000 rpm, 2 min. Wash cells with 2× of 250 ul PBS+2% FCS. For cell surface and intracellular staining, mix all antibodies and add into each well and incubate 1 hr at rt in dark. The antibodies used for staining are as following: pSTAT3, Alexa Fluor 647 (cat#4324s, lot, Cell Signaling); pSTAT5, Alexa Fluor 488 (cat#3939s, lot#, Cell Signaling), anti-rat CD4, V450 (cat#561579, lot#. BD); anti-rat CD11b, Percp eFluor710 (cat#12-0110-82, lot#, eBioscience) After staining cells with Abs, wash the plates twice with PBS+2% FCS and finally re-suspend in the same 150 ul of solution. Assess cell viability by Viability Dye 780 (cat#65-0865-14, lot#, eBioscience). Perform the cytometry assay using FORTESSA.

Assay [6] deals with paw swelling in Lewis rats. The assay is described as follows: Rat collagen-induced arthritis (CIA) model. The format is in vivo. As to the method:
Rat Collagen-Induced Arthritis (CIA) Model
This protocol uses Lewis rats (weight 150-175 grams) from Charles River. On day 0, anesthetize rats with Isoflurane. On day 1, immunize intradermally with collagen emulsion in two sites on the lower lumbar region, above the base of the tail. Dose volume is a minimum of 0.4 mL per injection site. On day 8, anesthetize rats with Isoflurane and immunize intradermally with collagen emulsion in two sites on the lower lumbar region, above the base of the tail. Enroll rats into treatment groups on day 12, based on inflammation (redness and/or swelling) in their hind paws. Randomize animals for Treatment Phase based on ankle measurement values and body weight using block randomization allocation tool. Record ankle swelling on days 1, 8, and 11 and then three times per week following enrollment up to and including the day of necropsy. Dose compounds orally once a day starting on day 12 (after randomization) up to day 25. The compounds of Examples 6 and 7 were evaluated in the protocol essentially as described above.

Assay [7] has as its system paw swelling and bone mineral density loss in Lewis rats. Nature of the assay: Rat adjuvant-induced arthritis (AIA) model. The assay is classed as in vivo. The conditions noted are these: naïve rat as 100% inhibition. How it is done:
Rat Adjuvant-Induced Arthritis (AIA) Model
The effects of compounds on polyarthritis inflammation and ankle joint bone erosion can be evaluated in a rat adjuvant-induced arthritis (AIA) model. Use Male Lewis rats with a mean body weight of 185 g for the study. Induce arthritis by intra-dermal injection located at the base of the tail with 100 μL of adjuvant suspended immunization emulsion oil. Randomize animals based on the mean paw thickness and body weight on day 10 into study groups with 8 rats in each group. Prepare compounds in 1% HEC/0.25% P80/0.05% AF in purified water and dose daily via oral gavage starting from day 11 post immunization for 14 days. Quantitate paw thickness with the caliper measurement on both ankles. Assess group differences using a one-way ANOVA followed by Dunnett's post-test for multiple comparisons against vehicle controls. The compound of Example 10 are evaluated in the protocol essentially as described above.

Assay [8] has as its target JAK2 (Rattus norvegicus (Rat), UniProt Q62689). Nature of the assay: Rat PK/PD assay: rat whole blood ex vivo JAK2 activity (pSTAT5). The assay is classed as in vivo. To be noted: 30 mpk oral. How it is done: as §6

T2 sequence (P23458 whole entry): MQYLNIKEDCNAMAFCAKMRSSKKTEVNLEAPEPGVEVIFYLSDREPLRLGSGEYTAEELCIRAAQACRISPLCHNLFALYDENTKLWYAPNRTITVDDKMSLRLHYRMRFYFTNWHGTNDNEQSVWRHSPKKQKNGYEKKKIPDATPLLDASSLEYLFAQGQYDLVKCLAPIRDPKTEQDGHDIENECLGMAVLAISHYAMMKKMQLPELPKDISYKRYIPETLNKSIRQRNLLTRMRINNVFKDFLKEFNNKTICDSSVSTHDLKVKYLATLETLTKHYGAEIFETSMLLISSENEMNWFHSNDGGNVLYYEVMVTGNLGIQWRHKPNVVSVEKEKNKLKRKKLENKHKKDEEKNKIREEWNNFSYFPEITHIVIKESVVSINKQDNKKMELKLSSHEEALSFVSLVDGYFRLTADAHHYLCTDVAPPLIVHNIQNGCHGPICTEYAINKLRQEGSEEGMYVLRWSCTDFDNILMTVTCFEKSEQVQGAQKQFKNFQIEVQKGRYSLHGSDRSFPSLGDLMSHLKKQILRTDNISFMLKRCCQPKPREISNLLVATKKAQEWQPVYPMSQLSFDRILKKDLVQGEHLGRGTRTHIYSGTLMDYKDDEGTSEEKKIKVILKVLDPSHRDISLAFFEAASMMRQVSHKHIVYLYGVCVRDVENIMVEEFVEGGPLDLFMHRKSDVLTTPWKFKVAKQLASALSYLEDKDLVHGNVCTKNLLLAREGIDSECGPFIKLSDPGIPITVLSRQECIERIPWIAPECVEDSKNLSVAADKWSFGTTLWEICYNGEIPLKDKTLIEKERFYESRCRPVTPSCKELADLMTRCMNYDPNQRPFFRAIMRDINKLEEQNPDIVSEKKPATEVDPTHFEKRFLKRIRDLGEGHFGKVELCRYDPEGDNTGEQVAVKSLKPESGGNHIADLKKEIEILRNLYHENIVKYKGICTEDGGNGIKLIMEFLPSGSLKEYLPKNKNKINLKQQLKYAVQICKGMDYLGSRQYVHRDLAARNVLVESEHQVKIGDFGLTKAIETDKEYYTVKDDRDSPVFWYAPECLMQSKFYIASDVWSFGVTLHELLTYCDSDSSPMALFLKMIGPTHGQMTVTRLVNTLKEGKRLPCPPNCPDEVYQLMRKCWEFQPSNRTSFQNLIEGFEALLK
JAK1 (Rattus norvegicus, UniProt G3V9W2), sequence (G3V9W2 1-1153): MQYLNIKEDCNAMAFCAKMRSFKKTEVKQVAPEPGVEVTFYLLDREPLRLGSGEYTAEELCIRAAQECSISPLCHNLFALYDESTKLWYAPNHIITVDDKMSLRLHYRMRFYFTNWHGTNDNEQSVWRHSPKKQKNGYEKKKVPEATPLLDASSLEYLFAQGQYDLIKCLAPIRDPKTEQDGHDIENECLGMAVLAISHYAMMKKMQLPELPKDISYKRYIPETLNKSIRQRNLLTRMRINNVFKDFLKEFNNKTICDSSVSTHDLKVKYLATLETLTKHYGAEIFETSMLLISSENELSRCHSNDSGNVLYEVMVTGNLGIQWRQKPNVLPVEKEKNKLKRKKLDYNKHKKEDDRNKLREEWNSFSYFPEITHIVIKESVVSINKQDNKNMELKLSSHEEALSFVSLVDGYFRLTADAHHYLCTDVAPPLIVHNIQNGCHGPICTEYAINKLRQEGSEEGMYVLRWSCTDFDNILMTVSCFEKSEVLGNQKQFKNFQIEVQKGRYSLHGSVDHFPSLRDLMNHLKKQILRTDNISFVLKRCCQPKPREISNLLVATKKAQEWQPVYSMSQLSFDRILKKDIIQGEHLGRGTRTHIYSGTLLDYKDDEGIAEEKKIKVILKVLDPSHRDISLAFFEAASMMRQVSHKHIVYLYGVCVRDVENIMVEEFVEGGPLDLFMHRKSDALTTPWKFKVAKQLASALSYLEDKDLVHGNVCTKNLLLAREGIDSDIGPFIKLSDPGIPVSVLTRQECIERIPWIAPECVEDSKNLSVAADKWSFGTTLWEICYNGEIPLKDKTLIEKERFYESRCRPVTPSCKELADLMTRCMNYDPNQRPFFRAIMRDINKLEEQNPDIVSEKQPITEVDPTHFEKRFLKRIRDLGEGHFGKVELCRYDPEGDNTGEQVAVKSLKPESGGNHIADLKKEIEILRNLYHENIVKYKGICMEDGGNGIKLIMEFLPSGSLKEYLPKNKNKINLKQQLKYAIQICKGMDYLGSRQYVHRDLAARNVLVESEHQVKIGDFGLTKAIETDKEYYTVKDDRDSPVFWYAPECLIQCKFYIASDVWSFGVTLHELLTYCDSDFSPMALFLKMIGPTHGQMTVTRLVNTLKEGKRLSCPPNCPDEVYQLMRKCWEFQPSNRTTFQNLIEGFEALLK
T1 sequence (O60674 whole entry): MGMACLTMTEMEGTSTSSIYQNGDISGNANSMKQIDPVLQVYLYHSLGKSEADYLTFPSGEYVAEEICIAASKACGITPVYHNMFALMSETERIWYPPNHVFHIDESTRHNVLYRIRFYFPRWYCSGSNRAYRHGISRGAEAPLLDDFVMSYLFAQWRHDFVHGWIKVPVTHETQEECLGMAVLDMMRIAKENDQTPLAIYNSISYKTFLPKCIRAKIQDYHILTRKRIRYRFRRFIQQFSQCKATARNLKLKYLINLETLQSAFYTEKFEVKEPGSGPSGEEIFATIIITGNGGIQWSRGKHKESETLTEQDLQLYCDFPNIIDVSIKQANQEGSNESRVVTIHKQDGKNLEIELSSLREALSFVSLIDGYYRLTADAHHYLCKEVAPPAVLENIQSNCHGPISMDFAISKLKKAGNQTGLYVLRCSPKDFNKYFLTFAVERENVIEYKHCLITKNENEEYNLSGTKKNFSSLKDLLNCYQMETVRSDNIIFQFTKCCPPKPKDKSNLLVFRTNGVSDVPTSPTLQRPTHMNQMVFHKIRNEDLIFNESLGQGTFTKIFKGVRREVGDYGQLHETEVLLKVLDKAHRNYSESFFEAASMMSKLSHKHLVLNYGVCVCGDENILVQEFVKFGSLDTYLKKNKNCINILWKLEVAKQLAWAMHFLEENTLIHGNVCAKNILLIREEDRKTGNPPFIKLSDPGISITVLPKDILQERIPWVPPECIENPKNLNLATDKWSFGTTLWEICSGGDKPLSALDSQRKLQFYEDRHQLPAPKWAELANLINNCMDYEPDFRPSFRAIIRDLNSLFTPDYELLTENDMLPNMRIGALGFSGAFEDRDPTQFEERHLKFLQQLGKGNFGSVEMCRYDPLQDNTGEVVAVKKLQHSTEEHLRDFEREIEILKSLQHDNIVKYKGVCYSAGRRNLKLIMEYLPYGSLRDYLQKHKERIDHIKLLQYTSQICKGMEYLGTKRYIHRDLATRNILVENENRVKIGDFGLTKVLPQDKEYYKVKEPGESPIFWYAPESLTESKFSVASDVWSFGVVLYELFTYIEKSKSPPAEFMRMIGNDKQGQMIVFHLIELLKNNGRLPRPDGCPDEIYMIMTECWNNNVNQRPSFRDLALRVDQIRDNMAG
JAK3, sequence (P52333 whole entry): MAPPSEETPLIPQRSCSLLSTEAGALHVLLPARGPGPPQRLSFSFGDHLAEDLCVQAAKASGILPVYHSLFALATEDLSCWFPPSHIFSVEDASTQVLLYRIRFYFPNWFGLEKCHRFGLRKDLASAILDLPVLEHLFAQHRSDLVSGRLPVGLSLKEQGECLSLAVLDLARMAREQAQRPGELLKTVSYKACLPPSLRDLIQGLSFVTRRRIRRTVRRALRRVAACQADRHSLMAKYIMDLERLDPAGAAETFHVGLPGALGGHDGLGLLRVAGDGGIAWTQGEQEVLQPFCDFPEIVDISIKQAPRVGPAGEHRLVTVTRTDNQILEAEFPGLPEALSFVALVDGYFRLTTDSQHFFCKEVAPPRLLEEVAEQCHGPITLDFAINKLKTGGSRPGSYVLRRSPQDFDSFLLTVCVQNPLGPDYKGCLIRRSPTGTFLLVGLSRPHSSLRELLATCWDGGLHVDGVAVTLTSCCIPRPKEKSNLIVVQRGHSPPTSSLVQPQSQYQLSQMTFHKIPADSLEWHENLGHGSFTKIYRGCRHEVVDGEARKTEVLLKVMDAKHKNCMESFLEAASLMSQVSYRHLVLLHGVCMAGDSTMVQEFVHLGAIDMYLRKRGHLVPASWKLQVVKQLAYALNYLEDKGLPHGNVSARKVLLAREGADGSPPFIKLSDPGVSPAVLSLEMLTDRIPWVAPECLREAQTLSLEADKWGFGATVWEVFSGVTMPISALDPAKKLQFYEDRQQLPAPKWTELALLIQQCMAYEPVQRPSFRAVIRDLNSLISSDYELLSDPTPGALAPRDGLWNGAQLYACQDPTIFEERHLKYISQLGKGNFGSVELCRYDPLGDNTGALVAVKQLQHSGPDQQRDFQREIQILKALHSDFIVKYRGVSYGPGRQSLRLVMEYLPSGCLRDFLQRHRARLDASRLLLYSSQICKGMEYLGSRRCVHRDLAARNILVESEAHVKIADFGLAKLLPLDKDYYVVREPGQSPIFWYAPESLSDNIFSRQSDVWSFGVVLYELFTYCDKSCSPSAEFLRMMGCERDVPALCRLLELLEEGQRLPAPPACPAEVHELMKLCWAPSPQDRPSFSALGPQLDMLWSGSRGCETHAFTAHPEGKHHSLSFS

Turning to `Cc1cc(Nc2cc(O[C@H]3CC[C@@H](NC[C@@H](O)C(F)F)CC3)cc3c2ncn3C)nn1C` [Example 9, (2R)-3-{[cis-4-({4-[(1,5-Dimethyl-1H-pyrazol-3-yl)amino]-1-methyl-1H-benzimidazol-6-yl}oxy)cyclohexyl]amino}-1,1-difluoropropan-2-ol], the IC50 (commonly the point on the concentration scale where inhibition reaches its midpoint) came out at 2140 ± 720 nM on JAK3; 16900 ± 4500 nM on JAK2 [1]; 767 ± 39 nM against JAK2 [2]; 5.35 ± 0.23 nM against JAK1 [3]; 4530 ± 2090 nM at JAK1 [4].
Taken in the same sequence, the figures for `Cn1cnc2c(Nc3cc[nH]n3)cc(O[C@H]3CC[C@@](C)(NC[C@@H](O)C(F)(F)F)CC3)cc21` [Example 8, (2R)-1,1,1-Trifluoro-3-[(cis-1-methyl-4-{[1-methyl-4-(1H-pyrazol-3-ylamino)-1H-benzimidazol-6-yl]oxy}cyclohexyl)amino]propan-2-ol] were 1170 ± 470 nM, 9630 ± 2520 nM, 239 ± 150 nM, 1.91 ± 0.75 nM and 3130 ± 1100 nM.
In the case of `CCn1nc(Nc2cc(OC3CCC(NC[C@@H](O)C(F)(F)F)CC3)cc3c2ncn3C)cc1C` (stereo in doubt) [Example 7], the “JAK1 inhibition 2 hr post dosing” value at JAK1 [5] (2 hr post dosing) is reported as 70.7%. In addition, on JAK1 [5] (7 hr post dosing), the “JAK1 inhibition 7 hr post dosing” value was determined as 61.0%. The “Rat paw swelling % inhibition at 3 mpk” value in [6] (3 mpk oral once a day day 12 to 25, naïve rat as 100% inhibition) is listed as 0%. Further, the “Rat paw swelling % inhibition at 10 mpk” value in assay [6] (10 mpk oral once a day day 12 to 25, naïve rat as 100% inhibition) was found to be 69%. Besides, the “Rat paw swelling % inhibition at 30 mpk” value in [6] (30 mpk oral once a day day 12 to 25, naïve rat as 100% inhibition) is listed as 73%. Also, the IC50 was determined as 6160 ± 2020 nM against JAK3, 5.43 ± 0.93 nM against JAK1 [3] and 4170 ± 1870 nM on JAK1 [4].
On to `Cn1cnc2c(Nc3ccn(-c4ccccn4)n3)cc(O[C@H]3CC[C@@H](NC[C@@H](O)C(F)(F)F)CC3)cc21` [Example 10, (2R)-1,1,1-Trifluoro-3-({cis-4-[(1-methyl-4-{[1-(pyridin-2-yl)-1H-pyrazol-3-yl]amino}-1H-benzimidazol-6-yl)oxy]cyclohexyl}amino)propan-2-ol], for which the IC50 against JAK3 stood at 660 ± 180 nM; against JAK2 [1] it was 6860 ± 2130 nM; at JAK2 [2] it was 220 ± 120 nM; against JAK1 [3] it was 1.49 ± 0.49 nM; against JAK1 [4], 1290 ± 640 nM. Further, the “% inhibition of BMD loss in paw” value turned out to be 39% in [7] (3 mpk oral daily for 14 days), 81% in assay [7] (10 mpk oral daily for 14 days) and 84% in [7] (30 mpk oral daily for 14 days). The “% inhibition of paw swelling” value in assay [7] (3 mpk oral daily for 14 days) was 26%; in assay [7] (10 mpk oral daily for 14 days) it was 63%; in [7] (30 mpk oral daily for 14 days), 73%.
For `Cc1cc(Nc2cc(O[C@H]3CC[C@@H](NC[C@@H](O)C(F)(F)F)CC3)cc3c2ncn3C)nn1C[C@H](C)O` [Example 4, (2R)-1,1,1-Trifluoro-3-[(cis-4-{[4-({1-[(2S)-2-hydroxypropyl]-5-methyl-1H-pyrazol-3-yl}amino)-1-methyl-1H-benzimidazol-6-yl]oxy}cyclohexyl)amino]propan-2-ol], the inhibition (usually the share of the control response that was lost under treatment) at 30 mg/kg at JAK1 [5] (2 hr post dosing, read-out: JAK1 inhibition 2 hr post dosing) is 72%; at JAK1 [5] (7 hr post dosing, read-out: JAK1 inhibition 7 hr post dosing) it was 22.3%; at JAK2 [8] (2 hr post dosing, read-out: JAK2 inhibition 2 hr post dosing), 22.9%; at JAK2 [8] (7 hr post dosing, read-out: JAK2 inhibition 7 hr post dosing), 20.1%.
